One assay has as its system MCF7. In words: Cytotoxicity against human MCF7 cells assessed as reduction in cell viability incubated for 48 hrs by MTT assay. The note with it: MCF7, 48 h. The format is functional, cell-based. For orientation: Tetrazolium dyes change colour on reduction, which living cells bring about.
The test system of a further assay is 4T1. In words: Cytotoxicity against mouse 4T1 cells assessed as reduction in cell viability incubated for 48 hrs by MTT assay. The format is functional, cell-based. As to conditions: 4T1, 48 h.
In assay [1] the test system is HT-1080. In words: Cytotoxicity against human HT-1080 cells assessed as reduction in cell viability incubated for 48 hrs by MTT assay. As to conditions: HT-1080, 48 h. It is filed as functional, cell-based.
The nature of assay [2]: Selectivity index, ratio of IC50 for cytotoxicity against human HT-1080 cells in presence of Fer-1 to IC50 for cytotoxicity against human HT-1080 cells. It is filed as functional.
The subject of assay [3] is HT-1080. In words: Cytotoxicity against human HT-1080 cells assessed as reduction in cell viability incubated for 48 hrs in presence of Fer-1 by MTT assay. As to conditions: HT-1080, 48 h. It is filed as functional, cell-based.

As to `O=C(NCCc1ccccc1)C(c1c[nH]c2ccccc12)N(C(=O)CCl)c1ccc(Br)cc1` (stereo unspecified), the figures for the IC50 in the assay on MCF7 and with 4T1 were 10.9 µM and 6.47 µM, respectively.

Take `CCOC(=O)c1ccc(CN(C(=O)CCl)C(C(=O)NCCc2ccccc2)c2c[nH]c3ccccc23)cc1` (stereo unspecified): the half-inhibitory concentration (IC50) (usually the point on the concentration scale where inhibition reaches its midpoint) came out at 2.3 µM in the assay with HT-1080 [1], 14.8 µM in the assay with MCF7, 5.86 µM in the assay on 4T1 and 4.4 µM with HT-1080 [3]. In addition, in assay [2], the “Ratio IC50” value was 1.91.

For `COc1ccc(N(C(=O)CCl)C(C(=O)NCCc2ccccc2)c2cccs2)cc1Cl` (stereo unspecified), the IC50 in the assay with HT-1080 [1] amounted to 0.66 µM; with MCF7 it was 10.1 µM; with 4T1, 2.52 µM; in the assay with HT-1080 [3], 7.31 µM. Further, the “Ratio IC50” value in assay [2] is 11.1.

In the case of `Cc1noc(-c2ccc(N(C(=O)CCl)C(C(=O)NCCc3ccccc3)c3c[nH]c4ccccc34)cc2)n1` (stereo unspecified), the IC50 came out at 0.33 µM in the assay with HT-1080 [1], 13.2 µM in the assay on MCF7, 1.94 µM in the assay on 4T1 and 4.21 µM in the assay with HT-1080 [3]. For the same compound, in assay [2], the “Ratio IC50” value was 12.8.

For `CCOC(=O)c1ccc(N(C(=O)CCl)C(C(=O)NCCc2ccccc2)c2cccc3[nH]ccc23)cc1` (stereo unspecified), the IC50 is 0.4 µM with HT-1080 [1], 14.8 µM with MCF7, 2.96 µM in the assay with 4T1 and 1.3 µM with HT-1080 [3]. Moreover, the “Ratio IC50” value in assay [2] is listed as 3.2.

Take `CCOC(=O)c1ccc(N(C(=O)CCl)C(C(=O)NCCc2cccc(C(F)(F)F)c2)c2c[nH]c3ccccc23)cc1` (stereo unspecified): the 50% inhibitory concentration (IC50) with HT-1080 [1] amounted to 0.56 µM; with MCF7, 10.3 µM; in the assay on 4T1 it was 2.17 µM; in the assay with HT-1080 [3], 5.03 µM. Besides, the “Ratio IC50” value in assay [2] is listed as 9.

In the case of `CCOC(=O)c1ccc(N(C(=O)CCl)C(C(=O)NCCc2ccc(Cl)cc2)c2c[nH]c3ccccc23)cc1` (stereo unspecified), the IC50 with HT-1080 [1] was 0.43 µM; in the assay on MCF7, 16.3 µM; in the assay on 4T1, 2.07 µM; with HT-1080 [3] it was 4.31 µM. Further, in assay [2], the “Ratio IC50” value is recorded as 10.

As to `CCOC(=O)c1ccc(N(C(=O)CCl)C(C(=O)NCCc2cccc(Cl)c2)c2c[nH]c3ccccc23)cc1` (stereo unspecified), the IC50 was 0.37 µM with HT-1080 [1], 9.26 µM in the assay on MCF7, 1.99 µM in the assay with 4T1 and 4.5 µM in the assay with HT-1080 [3]. For the same compound, the “Ratio IC50” value in assay [2] stood at 12.2.

As to `CCOC(=O)c1ccc(N(C(=O)CCl)C(C(=O)NCCc2ccccc2Cl)c2c[nH]c3ccccc23)cc1` (stereo unspecified), the IC50 with HT-1080 [1] was determined as 0.89 µM; in the assay with MCF7 it was 13.4 µM; in the assay on 4T1, 2.31 µM; in the assay with HT-1080 [3], 3.21 µM. In addition, the “Ratio IC50” value in assay [2] is given as 3.6.

As to `CCOC(=O)c1ccc(N(C(=O)CCl)C(C(=O)NC2CCCCC2)c2c[nH]c3ccccc23)cc1` (stereo unspecified), the IC50 is 0.93 µM with HT-1080 [1], 9.01 µM in the assay on MCF7, 4.63 µM in the assay with 4T1 and 3.45 µM in the assay with HT-1080 [3]. For the same compound, the “Ratio IC50” value in assay [2] was 3.7.

As to `O=C(NCCc1ccccc1)C(c1c[nH]c2ccccc12)N(C(=O)CCl)c1ccc(-c2nnco2)cc1` (stereo unspecified), the IC50 with HT-1080 [1] was determined as 0.35 µM; in the assay with MCF7, 5.92 µM; in the assay on 4T1 it was 0.89 µM; in the assay with HT-1080 [3], 4.52 µM. In assay [2], the “Ratio IC50” value worked out at 12.9.

In the case of `CCOC(=O)c1ccc(CN(C(=O)CCl)C(C(=O)NCc2ccccc2)c2c[nH]c3ccccc23)cc1` (stereo unspecified), the IC50 in the assay with HT-1080 [1] turned out to be 3 µM; in the assay with MCF7 it was 20.4 µM; in the assay with 4T1 it was 9.91 µM; in the assay on HT-1080 [3], 4.9 µM. Moreover, the “Ratio IC50” value in assay [2] is listed as 1.63.

For the compound `CCOC(=O)c1ccc(N(C(=O)CCl)C(C(=O)NCCc2ccccc2)c2ccnn2C)cc1` (stereo unspecified), the IC50 is 2.1 µM in the assay on HT-1080 [1], 8.97 µM with MCF7, 10.2 µM in the assay on 4T1 and 2.5 µM in the assay with HT-1080 [3]. Moreover, the “Ratio IC50” value in assay [2] stood at 1.2.

Regarding `COc1ccc(N(C(=O)CCl)C(C(=O)NCCc2ccccc2)c2c[nH]c3ccccc23)cc1` (stereo unspecified), the IC50 in the assay with MCF7 was 15.3 µM; in the assay on 4T1, 9.72 µM.

Turning to `O=C(NCCc1ccccc1)C(c1c[nH]c2ccccc12)N(C(=O)CCl)c1ccc(F)cc1` (stereo unspecified), the IC50 turned out to be 13.5 µM with MCF7 and 9.21 µM with 4T1.
